Patent US20260015350A1, “AZAQUINAZOLINE PAN-KRAS INHIBITORS” (Mirati Therapeutics, Inc., priority 2022, published 2026)

Key:
[1] = test system: KRas-mediated phosphorylation of ERK in A549 cells; assay: Inhibition of KRas-mediated phosphorylation of ERK (Cisbio HTRF pERK), A549 cells; assay type: cell-based; settings: Homo sapiens, HTRF pERK
How it was run: (§1)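 Using 6,000 cells per well, compounds are applied for 3 hrs and cells then lysed at 4° C with shaking for 40 mins. Phospho-ERK is measured by HTRF after 2 hrs of lysate incubation with the d2/Cryptate antibody mixture.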

KRas^G12V = target: T1, KRas^G12V (Homo sapiens, UniProt P01116, G12V); assay: KRas binding assay (TR-FRET tracer displacement), KRas G12V
T1 construct: Biotinylated KRas (corresponding to amino acids 1-169, produced at Accelegan Inc.); biotin (biotinylated); purchased Accelegan Inc
T1 sequence (P01116 1-169 isoform P01116-2 G12V): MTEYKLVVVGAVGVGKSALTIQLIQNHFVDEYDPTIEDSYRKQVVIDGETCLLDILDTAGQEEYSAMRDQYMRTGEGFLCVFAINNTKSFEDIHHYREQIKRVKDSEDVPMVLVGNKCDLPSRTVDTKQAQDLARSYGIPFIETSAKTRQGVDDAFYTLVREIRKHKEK

[2] = test system: KRas-mediated phosphorylation of ERK in H727 cells; assay: Inhibition of KRas-mediated phosphorylation of ERK (Cisbio HTRF pERK), H727 cells; assay type: cell-based; settings: Homo sapiens, NCI-H727, H727 cells; HTRF pERK
How it was run: (§2)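 6,000 cells/well; cpd 10 uM top, 3-fold x10, 0.8% DMSO final; 3 hr incubation; Min ctrl Trametinib 0.2 uM; lysis 40 min 4° C shaking; d2 + Cryptate Ab mix, 2 hr RT; HTRF read.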

[3] = test system: KRas-mediated phosphorylation of ERK in MKN1 cells; assay: Inhibition of KRas-mediated phosphorylation of ERK (Cisbio HTRF pERK), MKN1 cells; assay type: cell-based; settings: Homo sapiens, MKN-1
How it was run: (§3)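 HTRF pERK read-out; 6,000 cells/well, RPMI_10% FBS, overnight 37° C./5% CO2; 4 h covered incubation at RT before reading.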

KRas^WT = target: T2, KRas^WT (Homo sapiens, UniProt P01116); assay: KRas binding assay (TR-FRET tracer displacement), KRas WT; settings: TR-FRET tracer displacement, KRas WT
T2 construct: Biotinylated KRas (corresponding to amino acids 1-169, produced at Accelegan Inc.); biotin (biotinylated); purchased Accelegan Inc
T2 sequence (P01116 1-169 isoform P01116-2): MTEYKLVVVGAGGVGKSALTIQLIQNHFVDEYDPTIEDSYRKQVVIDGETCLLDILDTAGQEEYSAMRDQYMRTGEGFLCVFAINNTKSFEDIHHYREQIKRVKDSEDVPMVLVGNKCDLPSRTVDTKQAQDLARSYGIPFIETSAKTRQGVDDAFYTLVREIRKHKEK

[4] = test system: KRas-mediated phosphorylation of ERK in H460 cells; assay: Inhibition of KRas-mediated phosphorylation of ERK (Cisbio HTRF pERK), H460 cells; assay type: cell-based; settings: Homo sapiens, NCI-H460, HTRF pERK
How it was run: as §2

[5] = test system: KRas-mediated phosphorylation of ERK in H358 cells; assay: Inhibition of KRas-mediated phosphorylation of ERK (Cisbio HTRF pERK), H358 cells; assay type: cell-based; settings: Homo sapiens, NCI-H358, HTRF pERK
How it was run: as §2

[6] = test system: KRas-mediated phosphorylation of ERK in AsPC-1 cells; assay: Inhibition of KRas-mediated phosphorylation of ERK (Cisbio HTRF pERK), AsPC-1 cells; assay type: cell-based; settings: Homo sapiens, ASPC1, AsPC-1 cells; HTRF pERK
How it was run: as §2

KRas^G12D = target: T3, KRas^G12D (Homo sapiens, UniProt P01116, G12D); assay: KRas binding assay (TR-FRET tracer displacement), KRas G12D
T3 construct: Biotinylated KRas (corresponding to amino acids 1-169, produced at Accelegan Inc.); biotin (biotinylated); purchased Accelegan Inc
T3 sequence (P01116 1-169 isoform P01116-2 G12D): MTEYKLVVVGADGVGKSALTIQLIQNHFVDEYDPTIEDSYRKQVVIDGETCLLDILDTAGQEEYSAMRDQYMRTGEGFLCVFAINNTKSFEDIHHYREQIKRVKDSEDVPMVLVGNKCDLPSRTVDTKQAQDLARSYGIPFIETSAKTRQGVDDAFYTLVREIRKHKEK

[7] = test system: KRas-mediated phosphorylation of ERK in PSN1 cells; assay: Inhibition of KRas-mediated phosphorylation of ERK (Cisbio HTRF pERK), PSN1 cells; assay type: cell-based; settings: Homo sapiens
How it was run: as §3

KRas^G12S = target: T4, KRas^G12S (Homo sapiens, UniProt P01116, G12S); assay: KRas binding assay (TR-FRET tracer displacement), KRas G12S; settings: TR-FRET tracer displacement, KRas G12S
T4 construct: Biotinylated KRas (corresponding to amino acids 1-169, produced at Accelegan Inc.); biotin (biotinylated); purchased Accelegan Inc
T4 sequence (P01116 1-169 isoform P01116-2 G12S): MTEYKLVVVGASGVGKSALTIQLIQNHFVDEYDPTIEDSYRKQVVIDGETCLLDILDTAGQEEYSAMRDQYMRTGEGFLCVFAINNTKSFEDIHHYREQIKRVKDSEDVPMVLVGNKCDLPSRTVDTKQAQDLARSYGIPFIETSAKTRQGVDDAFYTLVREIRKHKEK

[8] = test system: KRas-mediated phosphorylation of ERK in HCT116 cells; assay: Inhibition of KRas-mediated phosphorylation of ERK (Cisbio HTRF pERK), HCT116 cells; assay type: cell-based; settings: Homo sapiens, HCT-116, HTRF pERK
How it was run: as §1

KRas^G12C = target: T5, KRas^G12C (Homo sapiens, UniProt P01116, G12C); assay: KRas binding assay (TR-FRET tracer displacement), KRas G12C; settings: TR-FRET tracer displacement, KRas G12C
T5 construct: Biotinylated KRas (corresponding to amino acids 1-169, produced at Accelegan Inc.); biotin (biotinylated); purchased Accelegan Inc
T5 sequence (P01116 1-169 isoform P01116-2 G12C): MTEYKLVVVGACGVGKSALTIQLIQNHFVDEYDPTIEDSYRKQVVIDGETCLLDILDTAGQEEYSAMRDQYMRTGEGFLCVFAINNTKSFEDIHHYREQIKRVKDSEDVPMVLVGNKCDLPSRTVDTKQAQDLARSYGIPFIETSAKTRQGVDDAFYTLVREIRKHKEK

SMILES | IC50 [1] [nM] | IC50 (KRas^G12V) [nM] | IC50 [2] [nM] | IC50 [3] [nM] | IC50 (KRas^WT) [nM] | IC50 [4] [nM] | IC50 [5] [nM] | IC50 [6] [nM] | IC50 (KRas^G12D) [nM] | IC50 [7] [nM] | IC50 (KRas^G12S) [nM] | IC50 [8] [nM] | IC50 (KRas^G12C) [nM]
C[C@@H]1C[C@@H]1c1c(Cl)cc(O)cc1-c1ncc2c(N3C[C@@H]4C[C@H](C3)[C@H](O)C4)nc(OC[C@@]34CCCN3C[C@H](F)C4)nc2c1F (stereo in doubt) [Example 920, (1R,5R,6R)-3-(7-(3-chloro-5-hydroxy-2-(cis-2-methylcyclopropyl)phenyl)-8-fluoro-2-(((2R,7aS)-2-fluorotetrahydro-1H-pyrrolizin-7a(5H)-yl)methoxy)pyrido[4,3-d]pyrimidin-4-yl)-3-azabicyclo[3.2.1]octan-6-ol] | 19 | < 2 | 42 | 4 | 2 | 15 | 12 | 77 | 4 | 2060 | < 2 | 44 | < 2
C[C@@H]1C[C@@H]1c1c(Cl)cc(O)cc1-c1ncc2c(N3CCCC4(CNS(=O)(=O)N4)C3)nc(OC[C@@]34CCCN3C[C@H](F)C4)nc2c1F (stereo in doubt) [Example 929, 7-(7-(3-chloro-5-hydroxy-2-(cis-2-methylcyclopropyl)phenyl)-8-fluoro-2-(((2R,7aS)-2-fluorotetrahydro-1H-pyrrolizin-7a(5H)-yl)methoxy)pyrido[4,3-d]pyrimidin-4-yl)-2-thia-1,3,7-triazaspiro[4.5]decane 2,2-dioxide] | 84 | < 2 | 163 | 17 | < 2 | 41 | 14 | 60 | 2 | 397 | < 2 | 137 | < 2
CCc1c(F)ccc2cc(O)cc(-c3ncc4c(N5CCCn6nc(C(=O)N(C)C)cc6C5)nc(OCC56CCCN5C/C(=C\F)C6)nc4c3F)c12 (stereo not shown) [Example 795, (Z)-5-(7-(8-ethyl-7-fluoro-3-hydroxynaphthalen-1-yl)-8-fluoro-2-((2-(fluoromethylene)tetrahydro-1H-pyrrolizin-7a(5H)-yl)methoxy)pyrido[4,3-d]pyrimidin-4-yl)-N,N-dimethyl-5,6,7,8-tetrahydro-4H-pyrazolo[1,5-a][1,4]diazepine-2-carboxamide] | 41 | < 2 | 11 | 4 | < 2 | 28 | 4 | 2 | < 2 | 4790 | < 2 | 130 | < 2
CCc1c(F)ccc2cc(O)cc(-c3ncc4c(N5CC=CCC5)nc(OC[C@@]56CCCN5C[C@H](F)C6)nc4c3F)c12 [Example 921, 4-(4-(3,6-dihydropyridin-1(2H)-yl)-8-fluoro-2-(((2R,7aS)-2-fluorotetrahydro-1H-pyrrolizin-7a(5H)-yl)methoxy)pyrido[4,3-d]pyrimidin-7-yl)-5-ethyl-6-fluoronaphthalen-2-ol] | 68 | 2 | 86 | 0.4 | 4 | 75 | 33 | 92 | 4 | 7630 | 2 | 309 | 2

These reach a lower IC50 [1]. Values come first.

IC50 [1] [nM] | IC50 (KRas^G12V) [nM] | IC50 [2] [nM] | IC50 [3] [nM] | IC50 (KRas^WT) [nM] | IC50 [4] [nM] | IC50 [5] [nM] | IC50 [6] [nM] | IC50 (KRas^G12D) [nM] | IC50 [7] [nM] | IC50 (KRas^G12S) [nM] | IC50 [8] [nM] | IC50 (KRas^G12C) [nM] | SMILES
1 | < 2 | 3 | 0.3 | < 2 | 2 | 1 | 3 | < 2 | 246 | < 2 | 9 | < 2 | CCc1c(F)ccc2cc(O)cc(-c3ncc4c(N5C[C@@H]6C[C@H](C5)[C@H](O)C6)nc(OCC56CCCN5C/C(=C\F)C6)nc4c3F)c12 (stereo partly drawn) [Example 793, (1R,5R,6R)-3-(7-(8-ethyl-7-fluoro-3-hydroxynaphthalen-1-yl)-8-fluoro-2-(((Z)-2-(fluoromethylene)tetrahydro-1H-pyrrolizin-7a(5H)-yl)methoxy)pyrido[4,3-d]pyrimidin-4-yl)-3-azabicyclo[3.2.1]octan-6-ol]
12 | < 2 | 27 | 1 | < 2 | 6 | 5 | 32 | < 2 | 37 | < 2 | 26 | < 2 | CCc1c(F)ccc2cc(O)cc(-c3ncc4c(N5CCC[C@]6(C5)NC(=O)NC6=O)nc(OCC56CCCN5C/C(=C\F)C6)nc4c3F)c12 (stereo partly drawn) [Example 794, (5R)-7-(7-(8-ethyl-7-fluoro-3-hydroxynaphthalen-1-yl)-8-fluoro-2-(((Z)-2-(fluoromethylene)tetrahydro-1H-pyrrolizin-7a(5H)-yl)methoxy)pyrido[4,3-d]pyrimidin-4-yl)-1,3,7-triazaspiro[4.5]decane-2,4-dione]
3 | < 2 | 19 | 0.3 | < 2 | 4 | 3 | 17 | < 2 | 946 | < 2 | 25 | < 2 | CCc1c(F)ccc2cc(O)cc(-c3ncc4c(N5C[C@@H]6C[C@H](C5)[C@H](O)C6)nc(OCC56CCCN5CC(=C(F)F)C6)nc4c3F)c12 (stereo partly drawn) [Example 798, (1R,5R,6R)-3-(2-((2-(difluoromethylene)tetrahydro-1H-pyrrolizin-7a(5H)-yl)methoxy)-7-(8-ethyl-7-fluoro-3-hydroxynaphthalen-1-yl)-8-fluoropyrido[4,3-d]pyrimidin-4-yl)-3-azabicyclo[3.2.1]octan-6-ol]
9 | < 2 | 20 | 0.9 | < 2 | 8 | 4 | 7 | < 2 | 988 | < 2 | 30 | < 2 | C=C1CN2CC(=C)CC2(COc2nc(N3CCC[C@@](C)(O)C3)c3cnc(-c4cc(O)cc5ccc(F)c(CC)c45)c(F)c3n2)C1 [Example 799, (R)-1-(2-((2,6-dimethylenetetrahydro-1H-pyrrolizin-7a(5H)-yl)methoxy)-7-(8-ethyl-7-fluoro-3-hydroxynaphthalen-1-yl)-8-fluoropyrido[4,3-d]pyrimidin-4-yl)-3-methylpiperidin-3-ol]
3 | < 2 | 3 | 0.3 | < 2 | 3 | 1 | 6 | < 2 | 587 | < 2 | 13 | < 2 | C=C1CN2CCCC2(COc2nc(N3C[C@@H]4C[C@H](C3)[C@H](O)C4)c3cnc(-c4cc(O)cc5ccc(F)c(CC)c45)c(F)c3n2)C1 (stereo partly drawn) [Example 800, (1R,5R,6R)-3-(7-(8-ethyl-7-fluoro-3-hydroxynaphthalen-1-yl)-8-fluoro-2-((2-methylenetetrahydro-1H-pyrrolizin-7a(5H)-yl)methoxy)pyrido[4,3-d]pyrimidin-4-yl)-3-azabicyclo[3.2.1]octan-6-ol]
7 | < 2 | 12 | 0.1 | < 2 | 4 | 1 | 3 | < 2 | 117 | < 2 | 15 | < 2 | C#Cc1c(F)ccc2cc(O)cc(-c3ncc4c(N5CCC[C@@](C)(O)C5)nc(OC[C@]56CCCN5C/C(=C\F)C6)nc4c3F)c12 [Example 801, (3R)-1-(7-(8-ethynyl-7-fluoro-3-hydroxynaphthalen-1-yl)-8-fluoro-2-(((Z)-2-(fluoromethylene)tetrahydro-1H-pyrrolizin-7a(5H)-yl)methoxy)pyrido[4,3-d]pyrimidin-4-yl)-3-methylpiperidin-3-ol]
